Measurements taken from patent US20110201603A1, “Novel Acylaminobenzamide Derivatives” (Bayer CropScience AG, priority 2008, published 2011).

What follows are compounds tested on tobacco cutworm (Spodoptera litura) larvae (assay: Test against tobacco cutworm (Spodoptera litura) larvae, leaf dip). Details: active compound concentration of 100 ppm; third-instar larvae on sweet potato leaves; after 7 days.
Type: in vivo
Experimental: Unless not mentioned otherwise, the test solutions were prepared as follows:
Containing as solvent: Dimethylformamide, 3 parts by weight; and as emulsifier: Polyoxyethylene alkyl phenyl ether, 1 part by weight
To prepare the test solution, 1 part by weight of an active compound is mixed with the above-mentioned amount of solvent containing the above-mentioned amount of emulsifier, and the mixture is diluted with water to the desired concentration.
The leaves of sweet potato were immersed in the test solution at the appropriate concentration, and the leaves were dried in air. The leaves were then placed in a petri dish having a diameter of 9 cm, and ten third-instar larvae of tobacco cutworm were released therein. The petri dish was placed in a temperature-controlled chamber at 25° C. After 2 days and 4 days sweet potato leaves were additionally added. After 7 days, the number of dead larvae was counted to calculate the insecticidal activity. An insecticidal activity of 100% means that all larvae were killed, whereas an insecticidal activity of 0% means that no larva was killed. In the current test, the results of two petri dishes for each partition were averaged.

**Q.** Which insecticidal activity does the source give for CCOC(c1cc(I)c(NC(=O)c2cccc(NC(=O)CCCl)c2)c(I)c1)(C(F)(F)F)C(F)(F)F [1-23] here?
**A.** The insecticidal activity was 100%.

**Q.** How did the insecticidal activity turn out when Cc1cc(C(n2cnc(C(F)(F)F)c2)(C(F)(F)F)C(F)(F)F)cc(C)c1NC(=O)c1cccc(NC(=O)c2cccnc2Cl)c1 [2-142] was run?
**A.** Its insecticidal activity is 100%.

**Q.** How did the insecticidal activity turn out when CCc1cc(C(n2cncn2)(C(F)(F)F)C(F)(F)F)cc(C)c1NC(=O)c1cccc(NC(=O)c2cccnc2Cl)c1 [2-149] was run?
**A.** Its insecticidal activity is 100%.

**Q.** With CCc1cc(C(n2cc(Cl)cn2)(C(F)(F)F)C(F)(F)F)cc(C)c1NC(=O)c1cccc(NC(=O)c2ccc(F)cc2F)c1 [2-38] as the compound, how does the insecticidal activity read?
**A.** The insecticidal activity was 100%.

**Q.** Which insecticidal activity does the source give for CCc1cc(C(ON=Cc2ccc(C)cc2)(C(F)(F)F)C(F)(F)F)cc(C)c1NC(=O)c1cccc(NC(=O)c2cccnc2Cl)c1 [1-149] here?
**A.** Its insecticidal activity is 100%.

**Q.** CCc1cc(C(n2cc(Cl)cn2)(C(F)(F)F)C(F)(F)F)cc(C)c1NC(=O)c1cccc(NC(=O)c2cccc(F)c2F)c1 [2-37] was tested. Which insecticidal activity did it give?
**A.** The insecticidal activity was 100%.

**Q.** Which insecticidal activity does the source give for CCc1cc(C(ON=Cc2ccccc2)(C(F)(F)F)C(F)(F)F)cc(C)c1NC(=O)c1cccc(NC(=O)c2cccnc2Cl)c1 [1-125] here?
**A.** The insecticidal activity was 100%.

**Q.** How did the insecticidal activity turn out when CCc1cc(C(n2cc(Cl)cn2)(C(F)(F)F)C(F)(F)F)cc(C)c1NC(=O)c1cccc(NC(=O)c2ccc(F)cc2)c1 [2-36] was run?
**A.** Its insecticidal activity is 100%.

**Q.** Which insecticidal activity does the source give for Cc1cc(C(n2cc(Br)c(Br)n2)(C(F)(F)F)C(F)(F)F)cc(C)c1NC(=O)c1cccc(NC(=O)c2cccnc2Cl)c1 [2-115] here?
**A.** The insecticidal activity was 100%.

**Q.** With CCc1cc(C(Oc2cccc(C(F)(F)F)c2)(C(F)(F)F)C(F)(F)F)cc(C)c1NC(=O)c1cccc(NC(=O)c2cccnc2Cl)c1 [1-110] as the compound, how does the insecticidal activity read?
**A.** Its insecticidal activity is 100%.

**Q.** Which insecticidal activity does the source give for Cc1cc(C(n2cc(Cl)c(C(F)(F)F)n2)(C(F)(F)F)C(F)(F)F)cc(C)c1NC(=O)c1cccc(NC(=O)c2cccnc2Cl)c1 [2-118] here?
**A.** The insecticidal activity was 100%.

**Q.** Which insecticidal activity does the source give for Cc1cc(C(n2nc(C(F)(F)F)cc2C(F)(F)F)(C(F)(F)F)C(F)(F)F)cc(C)c1NC(=O)c1cccc(NC(=O)c2cccnc2F)c1 [2-125] here?
**A.** The insecticidal activity was 100%.

**Q.** For Cc1cc(C(n2nc(C(F)(F)F)cc2C(F)(F)F)C(F)(F)F)cc(C)c1NC(=O)c1cccc(NC(=O)c2cccnc2Cl)c1 (centres unmarked) [2-123, N-{3-[(4-{1-[3,5-bis(trifluoromethyl)-1H-pyrazol-1-yl)-2,2,2-trifluoroethyl}-2,6-dimethylphenyl)carbamoyl]phenyl}-2-chloropyridine-3-carboxamide], which insecticidal activity is on record?
**A.** Its insecticidal activity is 100%.

**Q.** Which insecticidal activity does the source give for CCc1cc(C(n2cc(Cl)cn2)(C(F)(F)F)C(F)(F)F)cc(C)c1NC(=O)c1cccc(NC(=O)c2cccc(F)c2)c1 [2-35] here?
**A.** The insecticidal activity was 100%.

**Q.** Cc1cc(C(n2ncnn2)(C(F)(F)F)C(F)(F)F)cc(C)c1NC(=O)c1cccc(NC(=O)c2cccnc2Cl)c1 [2-154] was tested. Which insecticidal activity did it give?
**A.** Its insecticidal activity is 100%.

**Q.** With CCc1cc(C(n2cc(Cl)cn2)(C(F)(F)F)C(F)(F)F)cc(C)c1NC(=O)c1cccc(NC(=O)c2ccccc2F)c1 [2-30] as the compound, how does the insecticidal activity read?
**A.** The insecticidal activity was 100%.

**Q.** How did the insecticidal activity turn out when Cc1cc(C(n2cc(I)cn2)(C(F)(F)F)C(F)(F)F)cc(C)c1NC(=O)c1cccc(NC(=O)c2cccnc2Cl)c1 [2-95] was run?
**A.** Its insecticidal activity is 100%.

**Q.** How did the insecticidal activity turn out when CCc1cc(C(ON=Cc2ccc(OC)cc2)(C(F)(F)F)C(F)(F)F)cc(C)c1NC(=O)c1cccc(NC(=O)c2cccnc2Cl)c1 [1-150] was run?
**A.** The insecticidal activity was 100%.

**Q.** How did the insecticidal activity turn out when O=C(Nc1c(Br)cc(C(c2ccccc2)(n2ccc(C(F)(F)F)n2)C(F)(F)F)cc1Br)c1cccc(NC(=O)c2cccnc2Cl)c1 (single isomer, unassigned) [2-99] was run?
**A.** The insecticidal activity was 100%.

**Q.** With CCc1cc(C(n2cc(Cl)cn2)(C(F)(F)F)C(F)(F)F)cc(C)c1NC(=O)c1cccc(NC(=O)c2c(F)cccc2F)c1 [2-40] as the compound, how does the insecticidal activity read?
**A.** The insecticidal activity was 100%.

**Q.** Cc1cc(C(Oc2cccc(C(F)(F)F)c2)(C(F)(F)F)C(F)(F)F)cc(C)c1NC(=O)c1cccc(NC(=O)c2cccnc2Cl)c1 [1-167] was tested. Which insecticidal activity did it give?
**A.** The insecticidal activity was 100%.

**Q.** CCc1cc(C(Oc2ccc(Cl)nc2)(C(F)(F)F)C(F)(F)F)cc(C)c1NC(=O)c1cccc(NC(=O)c2cccnc2Cl)c1 [1-181] was tested. Which insecticidal activity did it give?
**A.** Its insecticidal activity is 100%.

**Q.** CCc1cc(C(N2CC=CC2)(C(F)(F)F)C(F)(F)F)cc(C)c1NC(=O)c1cccc(NC(=O)c2cccnc2Cl)c1 [2-170] was tested. Which insecticidal activity did it give?
**A.** The insecticidal activity was 100%.
